Results reported in US5136090A, “Biphenyl-5,5'-bis-alkanoic acid derivatives, their production and aldose reductase inhibitors containing the same” (Toyo Jozo Kabushiki Kaisha, priority 1990, dated 1992).

Experiments:
Sciatic Nerve = assay: Suppression of sorbitol accumulation in cultured sciatic nerve; format: cell-based, Wistar rats; details: concentration 1.0 μg/ml, rat sciatic nerve cultured 20 hours with 0.9% glucose; for inhibition at 1 µg/mL: Rattus norvegicus, 20 h
Method: (§1) Lenses and sciatic nerves extirpated from Wistar rats, male, aged 7 weeks, were washed twice with an aseptic buffer solution consisting of 0.3% trisaminomethane, 0.8% NaCl, 0.038% KCl, 0.025% Na2 HPO4 ·12H2 O, 0.1% glucose and 1.85 ml/l of concentrated HCl.
(§2) The lenses and the sciatic nerves were then preincubated for 30 mins. in a culture medium prepared by adding 2 ml of 7.5% NaHCO3 aseptic solution and 5.5 ml of aseptic calf fetus serum to 100 ml of an aseptic culture medium of 0.98% TC Medium 199 (NISSUI Corp.) containing 0.01% of dihydrostreptomycin and 0.01% of benzylpenicillin. Thereafter, the intrinsic culture was effected in a culture medium prepared by adding each sample solution to be examined and 0.9% of glucose to the abovementioned culture medium and permitting culturing to proceed for 20 hours. The incubation was effected at 37° C. in an atmosphere composed of 95% air and 5% CO2.
(§3) After culturing, the cultured samples of lens and sciatic nerve were removed from the culture medium to filter paper and the weight of each of them was measured after the adherent culture solution had been blown off. Then, each of the cultured samples was homogenized with the addition of 1 ml of a cold 8% HClO4 solution and the homogenized mixture was subjected to centrifugation at 10,000 G for 10 mins., whereby a supernatant was obtained. The resulting precipitate was then homogenized again with addition thereto of 0.5 ml of cold 8% HClO4 solution and the homogenized mixture was again subjected to centrifugation in a similar way as above to obtain a further supernatant. This was combined with the previously obtained supernatant and the resulting solution was neutralized with 2N KOH aq. solution and was supplemented with distilled water to a volume of 5 ml. The precipitate formed by neutralization was separated by centrifugation at 3,000 rpm for 10 mins. and the resulting supernatant was employed as the sample for determining the sorbitol content.
(§4) The determination of the sorbitol content in the lens and in the sciatic nerve was carried out in accordance with the method of Bergmeyer in "Methods of Enzymatic Analysis" edited by H. U. Bergmeyer, pp 1323-1326, Academic Press, New York, 1974 and in accordance with the method of Malaon et al. in "Diabetes" 29, 861-864 (1980).
(§5) To 0.5 ml cf the sample solution for determination of sorbitol content obtained as above, 0.9 ml of 0.1M glycine-KOH buffer solution (pH 9.4) containing 1 mM of NAD^+ and 0.1 ml of a solution of sorbitol dehydrogenase of 20 units/ml were added and the resulting mixture was subjected to incubation at 37° C. for 1 hour.
(§6) The content of sorbitol in each tissue was estimated by assuming the increment of the optical absorption at 340 nm to be proportional to the amount of NADH produced by the reaction for the lens and by detecting the fluorescence with an excitation wavelength of 366 nm and a fluorescence wavelength of 425 nm for the sciatic nerve.
(§7) The activity for suppressing accumulation of sorbitol, i.e. the aldose reductase inhibiting activity, was calculated from the determined sorbitol content by the calculation formula [formula] in which A denotes the content of sorbitol per unit weight of the tissue after cultivation with addition of the inhibitor, B denotes the sorbitol content per unit weight of the tissue after cultivation without addition of the inhibitor and C represents the sorbitol content per unit weight of the tissue after cultivation in the medium without addition of glucose and inhibitor.

[1] = biological target: T1, partially purified bovine lens aldose reductase (Bos taurus, UniProt P16116); assay: Inhibitory activity on aldose reductase enzyme reaction; format: biochemical; details: for inhibition at 0.1 µg/mL: concentration 0.1 μg/ml; for inhibition at 1 µg/mL: concentration 1.0 μg/ml; for inhibition at 0.02 µg/mL: concentration 0.02 μg/ml
T1 construct: partially purified bovine lens aldose reductase; from tissue; host or cells: bovine lens
Method: The preparation of aldose reductase and the determination of its inhibitory action on enzyme reaction activity were carried out pursuant to the procedures disclosed by Haymann et al. in Journal of Biological Chemistry, 240, 877 (1965).
The sample solution to be examined for inhibitory activity was prepared by dissolving a compound of formula (I) according to the present invention in a small amount of methanol and increasing the volume of the resulting methanol solution by diluting it with distilled water up to tenfold volume. A partially purified bovine lens aldose reductase was used for the assay.
To 2.4 ml of a solution of 5×10^-5 M NADPH dissolved in a 2/15M phosphate buffer solution (pH 6.0), 0.4 ml of the enzyme solution (15 m units/ml) and 0.1 ml of the sample solution to be examined were added and the mixture was introduced into a quartz cell in a photoelectric photometer and subjected to pre-incubation at 37° C. for 4 mins. Then, 0.1 ml of a 0.015M D,L-glyceraldehyde solution was added thereto for initiating the enzyme reaction and the decrease in the optical absorption at 340 nm was measured at 37° C. for 4 mins. The inhibitory activity on aldose reductase was calculated by the following equation: [formula] in which A represents the enzyme reaction rate with addition of the inhibitor and B denotes the enzyme reaction rate without addition of the inhibitor.

Lens = assay: Suppression of sorbitol accumulation in cultured lens; format: cell-based, Wistar rats; details: rat lens cultured 20 hours with 0.9% glucose; for inhibition at 5 µg/mL: concentration 5 μg/ml; for inhibition at 2.5 µg/mL: concentration 2.5 μg/ml
Method: as §1, §2, §3, §4, §5, §6, §7

Row | SMILES | inhibition at 0.1 µg/mL [1] | inhibition at 1 µg/mL [1] | inhibition at 0.02 µg/mL [1] | inhibition at 1 µg/mL (Sciatic Nerve) | inhibition at 5 µg/mL (Lens) | Inhibition of sorbitol Accumulation (%) Sciatic Nerve (Sciatic Nerve) | inhibition at 2.5 µg/mL (Lens)
1 | O=C(O)CCc1ccc(O)c(-c2cc(CCC(=O)O)ccc2OCc2ccc(Br)cc2F)c1 [Example 2, 2-(2-fluoro-4-bromobenzyloxy)-2'-hydroxy-5,5'-bis (2-carboxyethyl) biphenyl] | 54% | 89.1% |  |  |  |  | 
2 | O=C(O)CCc1ccc(O)c(-c2cc(CCC(=O)O)ccc2OCC2CCCCO2)c1 (stereo not shown) [Example 4, 2-(tetrahydro-2H-pyran-2-yl) methoxy-2'-hydroxy-5,5'-bis (2-carboxyethyl) biphenyl] | 50.4% | 88.2% |  |  |  |  | 
3 | CCCCOc1ccc(CCC(=O)O)cc1-c1cc(CCC(=O)O)ccc1O [Example 6, 2-butoxy-2'-hydroxy-5,5'-bis (2-carboxyethyl) biphenyl] | 58.6% | 90% |  |  |  |  | 
4 | CCCCCCOc1ccc(CCC(=O)O)cc1-c1cc(CCC(=O)O)ccc1O [Example 8, 2-hexyloxy-2'-hydroxy-5,5'-bis (2carboxyethyl) biphenyl] | 58.6% | 91.9% |  |  |  |  | 
5 | CCCCCCCCOc1ccc(CCC(=O)O)cc1-c1cc(CCC(=O)O)ccc1O [Example 10, 2-octyloxy-2'-hydroxy-5,5'-bis (2-carboxyethyl) biphenyl] | 67.4% | 93.7% |  | 33.6% | 37.7% |  | 
6 | CC(C)CCOc1ccc(CCC(=O)O)cc1-c1cc(CCC(=O)O)ccc1O [Example 12, 2-isopentyloxy-2'-hydroxy-5, 5'-bis (2-carboxyethyl) biphenyl] | 61.9% | 89.1% |  | 59.5% | 78.1% |  | 
7 | O=C(O)CCCc1ccc(O)c(-c2cc(CCCC(=O)O)ccc2OCc2ccc(Br)cc2F)c1 [Example 19, 2-(2-fluoro-4-bromobenzyloxy)-2'-hydroxy-5, 5'-bis (3-carboxypropyl) biphenyl] | 62.6% |  | 23.8% |  |  |  | 
8 | O=C(O)CCCc1ccc(O)c(-c2cc(CCCC(=O)O)ccc2OCC2CCCCC2)c1 [Example 20, 2-cyclohexylmethoxy-2'-hydroxy-5, 5'-bis (3-carboxypropyl) biphenyl] | 73.1% |  | 18.7% | 51.5% |  |  | 
9 | CCOc1ccc(CCCC(=O)O)cc1-c1cc(CCCC(=O)O)ccc1O [Example 22, 2-ethoxy-2'-hydroxy-5,5'-bis (3-carboxypropyl) biphenyl] | 63.9% |  | 27.2% |  |  |  | 
10 | CCCCOc1ccc(CCCC(=O)O)cc1-c1cc(CCCC(=O)O)ccc1O [Example 24, 2-butoxy-2'-hydroxy-5,5'-bis (3-carboxypropyl) biphenyl] | 62.6% |  | 25.6% |  |  |  | 
11 | CCCCCCCOc1ccc(CCCC(=O)O)cc1-c1cc(CCCC(=O)O)ccc1O [Example 25, 2-heptyloxy-2'-hydroxy-5,5'-bis (3-carboxypropyl) biphenyl] | 69.2% |  | 20.5% |  |  |  | 

Continued, in another order:

Row | inhibition at 0.1 µg/mL [1] | inhibition at 1 µg/mL [1] | inhibition at 0.02 µg/mL [1] | SMILES | inhibition at 1 µg/mL (Sciatic Nerve) | inhibition at 5 µg/mL (Lens) | Inhibition of sorbitol Accumulation (%) Sciatic Nerve (Sciatic Nerve) | inhibition at 2.5 µg/mL (Lens)
12 | 60.8% | 92.8% |  | O=C(O)CCc1ccc(O)c(-c2cc(CCC(=O)O)ccc2OCc2ccccc2)c1 [Example 1, 2-benzyloxy-2'-hydroxy-5,5'-bis (2carboxyethyl) biphenyl] | 64.6% | 69.9% |  | 
13 | 73.6% | 91.9% |  | O=C(O)CCc1ccc(O)c(-c2cc(CCC(=O)O)ccc2OCC2CCCCC2)c1 [Example 3, 2-cyclohexylmethoxy-2'-hydroxy-5,5'-bis (2-carboxyethyl) biphenyl] | 73.2% | 85.2% | 64.8% | 44.7%
14 | 73.6% | 90% |  | CCCOc1ccc(CCC(=O)O)cc1-c1cc(CCC(=O)O)ccc1O [Example 5, 2-propoxy-2'-hydroxy-5,5'-bis (2carboxyethyl) biphenyl] | 73.3% | 79.2% | 73.8% | 32.7%
15 | 56.4% | 90.9% |  | CCCCCOc1ccc(CCC(=O)O)cc1-c1cc(CCC(=O)O)ccc1O [Example 7, 2-pentyloxy-2'-hydroxy-5,5'-bis (2carboxyethyl) biphenyl] |  |  |  | 
16 | 65.3% | 91.9% |  | CCCCCCCOc1ccc(CCC(=O)O)cc1-c1cc(CCC(=O)O)ccc1O [Example 9, 2-heptyloxy-2'-hydroxy-5,5'-bis (2-carboxyethyl) biphenyl] | 37.8% | 65% |  | 
17 | 81.5% | 92.8% |  | CCCCCCCCCCCOc1ccc(CCC(=O)O)cc1-c1cc(CCC(=O)O)ccc1O [Example 11, 2-undecyloxy-2'-hydroxy-5,5'-bis (2-carboxyethyl) biphenyl] | 34.7% |  |  | 
18 | 60.6% | 95.2% |  | O=C(O)CCCOc1ccc(CCC(=O)O)cc1-c1cc(CCC(=O)O)ccc1O [Example 13, 2-(3-carboxypropoxy)-2'-hydroxy-5, 5'-bis (2-carboxyethyl) biphenyl] |  |  |  | 
19 | 52.4% | 90.5% |  | O=C(O)CCc1ccc(O)c(-c2cc(CCC(=O)O)ccc2OCCc2ccccc2)c1 [Example 14, 2-phenethyloxy-2'-hydroxy-5, 5'-bis (2-carboxyethyl) biphenyl] | 62.4% |  |  | 
20 | 47.6% | 89.6% |  | O=C(O)CCc1ccc(O)c(-c2cc(CCC(=O)O)ccc2OC2CCCCC2)c1 [Example 15, 2-cyclohexyloxy-2'-hydroxy-5, 5'-bis (2-carboxyethyl) biphenyl] | 43.2% |  |  | 
21 | 60.6% |  | 22% | O=C(O)CCCc1ccc(O)c(-c2cc(CCCC(=O)O)ccc2OCc2ccccc2)c1 [Example 18, 2-benzyloxy-2'-hydroxy-5,5'-bis (3-carboxypropyl) biphenyl] |  |  |  | 
22 | 73.1% |  | 35.3% | CCCCCCCCOc1ccc(CCCC(=O)O)cc1-c1cc(CCCC(=O)O)ccc1O [Example 26, 2-octyloxy-2'-hydroxy-5,5'-bis (3-carboxypropyl) biphenyl] | 43.3% |  |  | 
23 | 61.2% |  | 23.8% | CC(C)CCOc1ccc(CCCC(=O)O)cc1-c1cc(CCCC(=O)O)ccc1O [Example 27, 2-isopentyloxy-2'-hydroxy-5, 5'-bis (3-carboxypropyl) biphenyl] |  |  |  | 
24 | 71.7% |  | 28.8% | O=C(O)CCCc1ccc(O)c(-c2cc(CCCC(=O)O)ccc2OCCCCl)c1 [Example 28, 2-(3-chloropropoxy)-2'-hydroxy-5, 5'-bis (3-carboxypropyl) biphenyl] | 69% |  |  | 
